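Exposure lasted 48 hours, with cells grown in 96-well plates and compounds tested at five concentrations. Here, GI50 denotes the concentration required for 50% inhibition of growth. TGI denotes the concentration required for complete inhibition of growth.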
Legend:
Experiment in all cases: DTP human tumour cell line panel, 48 h
COLO 205 colon = test system: COLO 205 colon
MALME-3M melanoma = test system: MALME-3M melanoma
CCRF-CEM leukemia = test system: CCRF-CEM leukemia
SF-295 CNS = test system: SF-295 CNS
SK-MEL-5 melanoma = test system: SK-MEL-5 melanoma
786-0 renal = test system: 786-0 renal
UO-31 renal = test system: UO-31 renal
K-562 leukemia = test system: K-562 leukemia
MDA-MB-435 = test system: MDA-MB-435
BT-549 breast = test system: BT-549 breast

Structure (SMILES)	TGI (COLO 205 colon)	TGI (MALME-3M melanoma)	TGI (CCRF-CEM leukemia)	TGI (SF-295 CNS)	TGI (SK-MEL-5 melanoma)	TGI (786-0 renal)	TGI (UO-31 renal)	TGI (K-562 leukemia)	GI50 (COLO 205 colon)	GI50 (MALME-3M melanoma)	GI50 (MDA-MB-435)	TGI (MDA-MB-435)	GI50 (SF-295 CNS)	GI50 (SK-MEL-5 melanoma)	GI50 (786-0 renal)	GI50 (UO-31 renal)	GI50 (BT-549 breast)	TGI (BT-549 breast)	GI50 (K-562 leukemia)	GI50 (CCRF-CEM leukemia)
CC(C(=O)Oc1ccc2ccccc2c1-c1c(O)ccc2ccccc12)c1ccccc1 (centres undefined)	33.4 µM	34.8 µM	64.4 µM	25.6 µM	26.8 µM	29.3 µM	6.37 µM	86.7 µM												
O=C1c2ccccc2-c2c1c1ccccc1c(=O)n2CCNCCNCCn1c2c(c3ccccc3c1=O)C(=O)c1ccccc1-2	> 60.8 µM	16.2 µM		10.8 µM	19.9 µM	2.37 µM		> 100 µM	2.62 µM	0.207 µM	0.97 µM	19.6 µM	0.0917 µM	0.957 µM	0.0267 µM	0.519 µM	3.47 µM	17.4 µM	0.33 µM	
COC(=O)C(Nc1ccc(OC)cc1)c1ccccc1 (centres undefined)	> 100 µM		> 100 µM	> 100 µM	> 100 µM	> 100 µM	> 100 µM	> 100 µM				> 100 µM								
CCOC(=O)C(C)c1cc(C2(C)OCCO2)c(C)o1 (centres undefined)	> 100 µM	> 100 µM	> 100 µM	> 100 µM	> 100 µM	> 100 µM	> 100 µM	> 100 µM												
C/C=C(\C)C(=O)O[C@H]1C=CC(=O)O[C@H]1CNC(=O)[C@H](C)O	29.3 µM	35.1 µM		> 100 µM	31.3 µM	26.1 µM	33.4 µM	> 100 µM	12.6 µM	18.5 µM	20.1 µM	44.7 µM	32.6 µM	17 µM	13.3 µM	16.9 µM			22.3 µM	
O=C(Nc1ccc(Cl)cc1)c1cc2ccccc2cc1O	18.7 µM	95.6 µM	> 100 µM	> 100 µM	5.51 µM	> 100 µM	> 100 µM	> 100 µM	3.22 µM	1.67 µM	3.84 µM	> 100 µM	2.96 µM	1.84 µM	3.81 µM	2.03 µM			3.02 µM	4.65 µM
COC(=O)c1nc(NC#N)[nH]c(=O)c1C	> 100 µM	> 100 µM	> 100 µM	> 100 µM	> 100 µM	> 100 µM	> 84.2 µM	> 100 µM												
COc1ccc(-c2nc(-c3ccccc3)c(-c3ccccc3)n2C2CC2)cc1OC1CCCC1	> 165 µM		> 165 µM	> 165 µM	125 µM	> 165 µM	> 165 µM	> 165 µM	51.3 µM		147 µM	> 165 µM	67.5 µM	16.7 µM	98.2 µM	64.6 µM	> 165 µM	> 165 µM	11.5 µM	33.3 µM
O=C1OC2(c3ccccc3Oc3ccccc32)c2ccccc21	> 100 µM	> 100 µM	> 100 µM	> 100 µM	> 100 µM	> 100 µM	> 100 µM	> 100 µM												

Source: PubChem BioAssay (NCI)
